Measurements published in PMC6934184, “Selective DNA-PKcs inhibition extends the therapeutic index of localized radiotherapy and chemotherapy” (The Journal of Clinical Investigation, 2019).

Target: T1, NEK7 (Homo sapiens, UniProt Q8TDX7)
T1 construct: purchased Thermo Fisher Scientific (Life Technologies) SelectScreen
Assay: SelectScreen Z'LYTE
Type: biochemical
How it was run: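 SelectScreen broad panel; activity (Z'LYTE, Adapta) plus binding formats. ATP: Km app for CSF1R Z'LYTE; 10 for CAMK1 Adapta. Readout = % per kinase.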

T1 sequence (Q8TDX7 whole entry): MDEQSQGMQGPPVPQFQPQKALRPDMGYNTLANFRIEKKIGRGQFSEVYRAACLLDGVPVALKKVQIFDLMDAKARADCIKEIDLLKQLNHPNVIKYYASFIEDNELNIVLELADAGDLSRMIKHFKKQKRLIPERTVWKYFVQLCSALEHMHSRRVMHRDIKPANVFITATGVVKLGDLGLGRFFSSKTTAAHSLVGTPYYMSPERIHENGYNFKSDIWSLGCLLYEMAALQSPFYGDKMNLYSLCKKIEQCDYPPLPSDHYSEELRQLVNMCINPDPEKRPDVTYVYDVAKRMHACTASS

CN(C(=O)CN1CCOCC1)c1ccc2sc3c(-c4cccc5c(=O)cc(N6CC7CCC(C6)O7)oc45)cccc3c2c1 [NU5455]
inhibition at 1 µM: -2.1%
